In brackets after ≈: the same amount, converted by molar mass.
Experiments:
Type in all cases: cell-based
[1] = test system: Enterococcus; experiment: antibacterial spectrum in vitro (Table I), MIC
From the text: (§1) The above Table I illustrates antibacterial spectrum in vitro, using some pathogene microorganisms freshly isolated from patients.

[2] = test system: E. coli; experiment: antibacterial spectrum in vitro (Table I), MIC
[3] = test system: Diplococcus pneumoniae; experiment: antibacterial spectrum in vitro (Table I), MIC
From the text: as §1

[4] = test system: Klebsiella aerogenes; experiment: antibacterial spectrum in vitro (Table I), MIC
From the text: as §1

[5] = test system: Proteus mirabilis; experiment: antibacterial spectrum in vitro (Table I), MIC
[6] = test system: Staphylococcus pyog. aureus; experiment: antibacterial spectrum in vitro (Table I), MIC
From the text: as §1

[7] = test system: Pseudomonas aeruginosa; experiment: antibacterial spectrum in vitro (Table I), MIC
From the text: as §1

[8] = test system: Streptococcus haemolyticus; experiment: antibacterial spectrum in vitro (Table I), MIC
From the text: as §1

[9] = test system: Staphylococcus aureus 372; experiment: testing against a set of organisms (Table II), MIC; conditions: Staphylococcus aureus 372, Table II
[10] = test system: Enterococcus 45; experiment: testing against a set of organisms (Table II), MIC; conditions: Enterococcus 45, Table II
[11] = test system: Enterococcus 325; experiment: testing against a set of organisms (Table II), MIC; conditions: Enterococcus 325, Table II
[12] = test system: Streptococcus haemolyticus 099; experiment: testing against a set of organisms (Table II), MIC; conditions: Streptococcus haemolyticus 099, Table II
[13] = test system: Enterococcus 242; experiment: testing against a set of organisms (Table II), MIC; conditions: Enterococcus 242, Table II
[14] = test system: Staphylococcus aureus 736; experiment: testing against a set of organisms (Table II), MIC; conditions: Staphylococcus aureus 736, Table II
[15] = test system: Enterococcus 146; experiment: testing against a set of organisms (Table II), MIC; conditions: Enterococcus 146, Table II
[16] = test system: Streptococcus haemolyticus 69; experiment: testing against a set of organisms (Table II), MIC; conditions: Streptococcus haemolyticus 69, Table II

MIC [9] [µg/mL] | MIC [10] [µg/mL] | MIC [11] [µg/mL] | MIC [13] [µg/mL] | MIC [14] [µg/mL] | MIC [15] [µg/mL] | Structure (SMILES) | MIC [1] [µg/mL] | MIC [2] [µg/mL] | MIC [3] [µg/mL] | MIC [4] [µg/mL] | MIC [5] [µg/mL] | MIC [6] [µg/mL] | MIC [7] [µg/mL] | MIC [8] [µg/mL] | MIC [12] [µg/mL] | MIC [16] [µg/mL]
– | – | – | – | – | – | CC[C@H]1OC(=O)[C@H](C)[C@@H](O[C@H]2C[C@@](C)(OC)[C@@H](O)[C@H](C)O2)[C@H](C)[C@@H](O[C@@H]2O[C@H](C)C[C@H](N(C)C)[C@H]2O)[C@](C)(O)C[C@@H](C)C(=O)[C@H](C)[C@@H](O)[C@]1(C)O [E, erythromycin, reference compound] | 31.2 (≈ 42.5 µM) | 250 (≈ 341 µM) | 62.5 (≈ 85.2 µM) | 500 (≈ 681 µM) | 500 (≈ 681 µM) | 62.5 (≈ 85.2 µM) | 500 (≈ 681 µM) | 31.2 (≈ 42.5 µM) | – | –
7.8 (≈ 8.64 µM) | 7.8 (≈ 8.64 µM) | 3.9 (≈ 4.32 µM) | 3.9 (≈ 4.32 µM) | 31.2 (≈ 34.5 µM) | 7.8 (≈ 8.64 µM) | CCc1ccc(S(=O)(=O)NC2C(C)CC(C)(O)C(OC3OC(C)CC(N(C)C)C3O)C(C)C(OC3CC(C)(OC)C(O)C(C)O3)C(C)C(=O)OC(CC)C(C)(O)C(O)C2C)cc1 (stereo not drawn) [EAE, N-(4-ethyl-benzenesulfonyl)erythromycylamine] | – | – | – | – | – | – | – | – | 0.9 (≈ 0.996 µM) | 0.9 (≈ 0.996 µM)
15.6 (≈ 17.5 µM) | 7.8 (≈ 8.73 µM) | 7.8 (≈ 8.73 µM) | 3.9 (≈ 4.37 µM) | 31.2 (≈ 34.9 µM) | 7.8 (≈ 8.73 µM) | CCC1OC(=O)C(C)C(OC2CC(C)(OC)C(O)C(C)O2)C(C)C(OC2OC(C)CC(N(C)C)C2O)C(C)(O)CC(C)C(NS(=O)(=O)c2ccc(F)cc2)C(C)C(O)C1(C)O (stereo not drawn) [EAF, N-(4-fluoro-benzenesulfonyl)erythromycylamine] | – | – | – | – | – | – | – | – | < 0.9 | 3.9 (≈ 4.37 µM)
3.9 (≈ 3.9 µM) | 7.8 (≈ 7.79 µM) | 3.9 (≈ 3.9 µM) | 7.8 (≈ 7.79 µM) | 15.6 (≈ 15.6 µM) | 3.9 (≈ 3.9 µM) | CCC1OC(=O)C(C)C(OC2CC(C)(OC)C(O)C(C)O2)C(C)C(OC2OC(C)CC(N(C)C)C2O)C(C)(O)CC(C)C(NS(=O)(=O)c2ccc(I)cc2)C(C)C(O)C1(C)O (stereo not drawn) [EAI, N-(4-iodo-benzenesulfonyl)erythromycylamine] | – | – | – | – | – | – | – | – | 0.9 (≈ 0.899 µM) | 0.9 (≈ 0.899 µM)
15.6 (≈ 16.5 µM) | 62.5 (≈ 66.1 µM) | 62.5 (≈ 66.1 µM) | 31.2 (≈ 33 µM) | 15.6 (≈ 16.5 µM) | 7.8 (≈ 8.24 µM) | CCC(=O)Nc1ccc(S(=O)(=O)NC2C(C)CC(C)(O)C(OC3OC(C)CC(N(C)C)C3O)C(C)C(OC3CC(C)(OC)C(O)C(C)O3)C(C)C(=O)OC(CC)C(C)(O)C(O)C2C)cc1 (stereo not drawn) [EAPr, N-(4-propionylamino-benzenesulfonyl)erythromycylamine] | – | – | – | – | – | – | – | – | 0.9 (≈ 0.951 µM) | 0.9 (≈ 0.951 µM)
15.6 (≈ 17.5 µM) | 7.8 (≈ 8.77 µM) | 7.8 (≈ 8.77 µM) | 3.9 (≈ 4.39 µM) | 31.2 (≈ 35.1 µM) | 15.6 (≈ 17.5 µM) | CCC1OC(=O)C(C)C(OC2CC(C)(OC)C(O)C(C)O2)C(C)C(OC2OC(C)CC(N(C)C)C2O)C(C)(O)CC(C)C(NS(=O)(=O)c2ccccc2C)C(C)C(O)C1(C)O (stereo not drawn) [o-EAT, N-(2-methyl-benzenesulfonyl)erythromycylamine] | – | – | – | – | – | – | – | – | 1.9 (≈ 2.14 µM) | 0.9 (≈ 1.01 µM)

Structure (SMILES) | MIC [9] [µg/mL] | MIC [10] [µg/mL] | MIC [11] [µg/mL] | MIC [13] [µg/mL] | MIC [14] [µg/mL] | MIC [15] [µg/mL] | MIC [1] [µg/mL] | MIC [2] [µg/mL] | MIC [3] [µg/mL] | MIC [4] [µg/mL] | MIC [5] [µg/mL] | MIC [6] [µg/mL] | MIC [7] [µg/mL] | MIC [8] [µg/mL] | MIC [12] [µg/mL] | MIC [16] [µg/mL]
CCC1OC(=O)C(C)C(OC2CC(C)(OC)C(O)C(C)O2)C(C)C(OC2OC(C)CC(N(C)C)C2O)C(C)(O)CC(C)C(NS(=O)(=O)c2ccc(NC(C)=O)cc2)C(C)C(O)C1(C)O (stereo not drawn) [EAAc, N-(4-acetylamino-benzenesulfonyl)erythromycylamine] | 15.6 (≈ 16.7 µM) | 125.0 (≈ 134 µM) | 62.5 (≈ 67 µM) | 62.5 (≈ 67 µM) | 31.2 (≈ 33.5 µM) | 31.2 (≈ 33.5 µM) | 1.9 (≈ 2.04 µM) | – | 1.9 (≈ 2.04 µM) | 62.5 (≈ 67 µM) | 125 (≈ 134 µM) | 15.6 (≈ 16.7 µM) | 250.0 (≈ 268 µM) | 0.45 (≈ 0.483 µM) | 1.9 (≈ 2.04 µM) | 0.9 (≈ 0.965 µM)
CCC1OC(=O)C(C)C(OC2CC(C)(OC)C(O)C(C)O2)C(C)C(OC2OC(C)CC(N(C)C)C2O)C(C)(O)CC(C)C(NS(=O)(=O)c2ccc(Br)cc2)C(C)C(O)C1(C)O (stereo not drawn) [EABr, N-(4-bromo-benzenesulfonyl)erythromycylamine] | 3.9 (≈ 4.09 µM) | 7.8 (≈ 8.18 µM) | 3.9 (≈ 4.09 µM) | 3.9 (≈ 4.09 µM) | 7.8 (≈ 8.18 µM) | 3.9 (≈ 4.09 µM) | 1.9 (≈ 1.99 µM) | 125.0 (≈ 131 µM) | 3.9 (≈ 4.09 µM) | 62.5 (≈ 65.5 µM) | 250 (≈ 262 µM) | 31.2 (≈ 32.7 µM) | 250.0 (≈ 262 µM) | 0.9 (≈ 0.943 µM) | 0.9 (≈ 0.943 µM) | 0.9 (≈ 0.943 µM)
CCC1OC(=O)C(C)C(OC2CC(C)(OC)C(O)C(C)O2)C(C)C(OC2OC(C)CC(N(C)C)C2O)C(C)(O)CC(C)C(NS(=O)(=O)c2ccc(Cl)cc2)C(C)C(O)C1(C)O (stereo not drawn) [EACl, N-(4-chloro-benzenesulfonyl)erythromycylamine] | 3.9 (≈ 4.29 µM) | 3.9 (≈ 4.29 µM) | 7.8 (≈ 8.58 µM) | 3.9 (≈ 4.29 µM) | 31.2 (≈ 34.3 µM) | 7.8 (≈ 8.58 µM) | 3.9 (≈ 4.29 µM) | 62.5 (≈ 68.7 µM) | 1.9 (≈ 2.09 µM) | 125 (≈ 137 µM) | 250 (≈ 275 µM) | 31.2 (≈ 34.3 µM) | 250.0 (≈ 275 µM) | 0.9 (≈ 0.989 µM) | 0.9 (≈ 0.989 µM) | 0.9 (≈ 0.989 µM)
CCC1OC(=O)C(C)C(OC2CC(C)(OC)C(O)C(C)O2)C(C)C(OC2OC(C)CC(N(C)C)C2O)C(C)(O)CC(C)C(NS(=O)(=O)c2ccc(C)cc2)C(C)C(O)C1(C)O (stereo not drawn) [EAT, N-(4-methyl-benzenesulfonyl)erythromycylamine] | 7.8 (≈ 8.77 µM) | 7.8 (≈ 8.77 µM) | 7.8 (≈ 8.77 µM) | 3.9 (≈ 4.39 µM) | 15.6 (≈ 17.5 µM) | 7.8 (≈ 8.77 µM) | 3.9 (≈ 4.39 µM) | 62.2 (≈ 70 µM) | 1.9 (≈ 2.14 µM) | 250 (≈ 281 µM) | 250 (≈ 281 µM) | 31.2 (≈ 35.1 µM) | 250.0 (≈ 281 µM) | 0.9 (≈ 1.01 µM) | 0.9 (≈ 1.01 µM) | 0.9 (≈ 1.01 µM)

— patent publication US3983103A, “N-(Benzenesulfonyl)-erythromycylamine derivatives” (PLIVA Pharmaceutical and Chemical Works, priority 1973, dated 1976)
